In US20210045385A1, “PYRIDAZINONE-SUBSTITUTED KETOXIMES AS HERBICIDES” (FMC Corporation, priority 2018, published 2021):

How the values were obtained:
Assay type in all cases: in vivo
[1] = tested on: Italian ryegrass (Lolium mutiflorum); experiment: Test C preemergence, visual plant response rating; settings: Test C, 0 is no effect, 100 is complete control
Summary of the method: (§1)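 Compounds in a non-phytotoxic solvent with surfactant were applied as a directed soil spray preemergence or to 2–10 cm, one- to two-leaf plants postemergence, in loam–sand soil. After about 10 d in a greenhouse, injury was visually rated against untreated controls on a 0–100 scale (100 = complete control).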

[2] = tested on: barnyardgrass (Echinochloa crus-galli); experiment: Test C preemergence, visual plant response rating; settings: Test C, 0 is no effect, 100 is complete control
Summary of the method: as §1

[3] = tested on: foxtail, giant (giant foxtail, Setaria faberi); experiment: Test C preemergence, visual plant response rating; settings: Test C, 0 is no effect, 100 is complete control
Summary of the method: as §1

kochia (Bassia scoparia) [4] = experiment: Test C preemergence, visual plant response rating; settings: Test C, 0 is no effect, 100 is complete control
Summary of the method: as §1

[5] = tested on: pigweed (Amaranthus retroflexus); experiment: Test C preemergence, visual plant response rating; settings: Test C, 0 is no effect, 100 is complete control
Summary of the method: as §1

[6] = tested on: ragweed (common ragweed, Ambrosia artemisiifolia); experiment: Test C preemergence, visual plant response rating; settings: Test C, 0 is no effect, 100 is complete control
Summary of the method: as §1

[7] = tested on: Italian ryegrass (Lolium mutiflorum); experiment: Test C postemergence, visual plant response rating
Summary of the method: as §1

[8] = tested on: barnyardgrass (Echinochloa crus-galli); experiment: Test C postemergence, visual plant response rating
Summary of the method: as §1

[9] = tested on: blackgrass (Alopecurus myosuroides); experiment: Test C postemergence, visual plant response rating
Summary of the method: as §1

corn (Zea mays) = experiment: Test C postemergence, visual plant response rating
Summary of the method: as §1

[10] = tested on: foxtail, giant (giant foxtail, Setaria faberi); experiment: Test C postemergence, visual plant response rating
Summary of the method: as §1

[11] = tested on: galium (catchweed bedstraw, Galium aparine); experiment: Test C postemergence, visual plant response rating
Summary of the method: as §1

kochia (Bassia scoparia) [12] = experiment: Test C postemergence, visual plant response rating
Summary of the method: as §1

[13] = tested on: pigweed (Amaranthus retroflexus); experiment: Test C postemergence, visual plant response rating
Summary of the method: as §1

[14] = tested on: ragweed (common ragweed, Ambrosia artemisiifolia); experiment: Test C postemergence, visual plant response rating
Summary of the method: as §1

[15] = tested on: wheat (Triticum aestivum); experiment: Test C postemergence, visual plant response rating
Summary of the method: as §1

[16] = tested on: barnyardgrass (Echinochloa crus-galli); experiment: Test D flooded paddy test, visual plant response rating; settings: 250 g ai/ha, scale 0 to 100 (0 no effect, 100 complete control), 13 to 15 d
Summary of the method: (§2)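 2-leaf plants, flooded 3 cm, cpd into paddy water; greenhouse 13–15 d; visual rating vs controls, 0 = no effect, 100 = complete control; dash = no result.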

[17] = tested on: duck salad (Heteranthera limosa); experiment: as above; settings: 250 g ai/ha, scale 0 to 100 (0 no effect, 100 complete control), 13 to 15 d
Summary of the method: as §2

rice (Oryza sativa) = experiment: as above; settings: 250 g ai/ha, scale 0 to 100 (0 no effect, 100 complete control), 13 to 15 d
Summary of the method: as §2

[18] = tested on: sedge umbrella (small-flower umbrella sedge, Cyperus difformis); experiment: as above; settings: 250 g ai/ha, scale 0 to 100 (0 no effect, 100 complete control), 13 to 15 d
Summary of the method: as §2

[19] = Test C, postemergence, 125 g ai/ha

SMILES	Ryegrass, Italian plant response rating (0 to 100 scale) ([1]; 31 g ai/ha)	Ryegrass, Italian plant response rating (0 to 100 scale) ([1]; 125 g ai/ha)	Barnyardgrass plant response rating (0 to 100 scale) ([2]; 31 g ai/ha)	Barnyardgrass plant response rating (0 to 100 scale) ([2]; 125 g ai/ha)	Foxtail, Giant plant response rating (0 to 100 scale) ([3]; 31 g ai/ha)	Foxtail, Giant plant response rating (0 to 100 scale) ([3]; 125 g ai/ha)	Kochia plant response rating (0 to 100 scale) (kochia (Bassia scoparia) [4]; 31 g ai/ha)	Kochia plant response rating (0 to 100 scale) (kochia (Bassia scoparia) [4]; 125 g ai/ha)	Pigweed plant response rating (0 to 100 scale) ([5]; 31 g ai/ha)	Pigweed plant response rating (0 to 100 scale) ([5]; 125 g ai/ha)	Ragweed plant response rating (0 to 100 scale) ([6]; 31 g ai/ha)	Ragweed plant response rating (0 to 100 scale) ([6]; 125 g ai/ha)	Ryegrass, Italian plant response rating (0 to 100 scale) ([7]; Postemergence, 31 g ai/ha)	Ryegrass, Italian plant response rating (0 to 100 scale) [7, 19]	Barnyardgrass plant response rating (0 to 100 scale) ([8]; Postemergence, 31 g ai/ha)	Barnyardgrass plant response rating (0 to 100 scale) [8, 19]	Blackgrass plant response rating (0 to 100 scale) ([9]; Postemergence, 31 g ai/ha)	Blackgrass plant response rating (0 to 100 scale) [9, 19]	Corn plant response rating (0 to 100 scale) (corn (Zea mays); Postemergence, 31 g ai/ha)	Corn plant response rating (0 to 100 scale) (corn (Zea mays); [19])	also measured
CON=C(c1cc(Cl)cc(F)c1Cl)c1c(O)c(C)nn(C)c1=O [Compound 272]	90	100	30	50	80	80	10	90	70	100	20	40	90	100	40	60	30	80	10	20	Foxtail, Giant plant response rating (0 to 100 scale) ([10]; Postemergence, 31 g ai/ha): 60; Foxtail, Giant plant response rating (0 to 100 scale) [10, 19]: 90; Galium plant response rating (0 to 100 scale) ([11]; Postemergence, 31 g ai/ha): 90; Galium plant response rating (0 to 100 scale) [11, 19]: 100; Kochia plant response rating (0 to 100 scale) (kochia (Bassia scoparia) [12]; Postemergence, 31 g ai/ha): 70; Kochia plant response rating (0 to 100 scale) (kochia (Bassia scoparia) [12]; [19]): 80; Pigweed plant response rating (0 to 100 scale) ([13]; Postemergence, 31 g ai/ha): 70; Pigweed plant response rating (0 to 100 scale) [13, 19]: 90; Ragweed plant response rating (0 to 100 scale) ([14]; Postemergence, 31 g ai/ha): 60; Ragweed plant response rating (0 to 100 scale) [14, 19]: 80; Wheat plant response rating (0 to 100 scale) ([15]; Postemergence, 31 g ai/ha): 30; Wheat plant response rating (0 to 100 scale) [15, 19]: 60; Plant response rating, Barnyardgrass (Flood) [16]: 25; Plant response rating, Ducksalad (Flood) [17]: 60; Plant response rating, Rice (Flood) (rice (Oryza sativa)): 15; Plant response rating, Sedge, Umbrella (Flood) [18]: 65
CCO/N=C(\c1c(O)c(C)nn(C)c1=O)c1cccc2cc(Cl)ccc12 [Compound 273]	0	40	40	80	80	90	0	40	90	90	20	20	10	60	40	80	80	90	0	30	Foxtail, Giant plant response rating (0 to 100 scale) ([10]; Postemergence, 31 g ai/ha): 100; Foxtail, Giant plant response rating (0 to 100 scale) [10, 19]: 100; Galium plant response rating (0 to 100 scale) ([11]; Postemergence, 31 g ai/ha): 100; Galium plant response rating (0 to 100 scale) [11, 19]: 100; Kochia plant response rating (0 to 100 scale) (kochia (Bassia scoparia) [12]; Postemergence, 31 g ai/ha): 40; Kochia plant response rating (0 to 100 scale) (kochia (Bassia scoparia) [12]; [19]): 60; Pigweed plant response rating (0 to 100 scale) ([13]; Postemergence, 31 g ai/ha): 90; Pigweed plant response rating (0 to 100 scale) [13, 19]: 100; Ragweed plant response rating (0 to 100 scale) ([14]; Postemergence, 31 g ai/ha): 90; Ragweed plant response rating (0 to 100 scale) [14, 19]: 100; Wheat plant response rating (0 to 100 scale) ([15]; Postemergence, 31 g ai/ha): 0; Wheat plant response rating (0 to 100 scale) [15, 19]: 0; Plant response rating, Barnyardgrass (Flood) [16]: 90; Plant response rating, Ducksalad (Flood) [17]: 95; Plant response rating, Rice (Flood) (rice (Oryza sativa)): 85; Plant response rating, Sedge, Umbrella (Flood) [18]: 95
C#CCO/N=C(/c1cccc(Br)c1)c1c(O)c(C)nn(C)c1=O [Compound 277]	10	100	0	30	10	30	0	90	10	70	20	80	40	70	20	60	30	80	10	30	Foxtail, Giant plant response rating (0 to 100 scale) ([10]; Postemergence, 31 g ai/ha): 10; Foxtail, Giant plant response rating (0 to 100 scale) [10, 19]: 60; Galium plant response rating (0 to 100 scale) ([11]; Postemergence, 31 g ai/ha): 70; Galium plant response rating (0 to 100 scale) [11, 19]: 80; Kochia plant response rating (0 to 100 scale) (kochia (Bassia scoparia) [12]; Postemergence, 31 g ai/ha): 50; Kochia plant response rating (0 to 100 scale) (kochia (Bassia scoparia) [12]; [19]): 70; Pigweed plant response rating (0 to 100 scale) ([13]; Postemergence, 31 g ai/ha): 40; Pigweed plant response rating (0 to 100 scale) [13, 19]: 60; Ragweed plant response rating (0 to 100 scale) ([14]; Postemergence, 31 g ai/ha): 40; Ragweed plant response rating (0 to 100 scale) [14, 19]: 90; Wheat plant response rating (0 to 100 scale) ([15]; Postemergence, 31 g ai/ha): 30; Wheat plant response rating (0 to 100 scale) [15, 19]: 70; Plant response rating, Barnyardgrass (Flood) [16]: 0; Plant response rating, Ducksalad (Flood) [17]: 0; Plant response rating, Rice (Flood) (rice (Oryza sativa)): 0; Plant response rating, Sedge, Umbrella (Flood) [18]: 0
C#CCO/N=C(\c1cccc(Br)c1)c1c(O)c(C)nn(C)c1=O [Compound 278]	20	100	0	20	30	60	0	70	0	0	10	40	70	80	40	50	50	90	0	20	Foxtail, Giant plant response rating (0 to 100 scale) ([10]; Postemergence, 31 g ai/ha): 30; Foxtail, Giant plant response rating (0 to 100 scale) [10, 19]: 70; Galium plant response rating (0 to 100 scale) ([11]; Postemergence, 31 g ai/ha): 80; Galium plant response rating (0 to 100 scale) [11, 19]: 90; Kochia plant response rating (0 to 100 scale) (kochia (Bassia scoparia) [12]; Postemergence, 31 g ai/ha): 40; Kochia plant response rating (0 to 100 scale) (kochia (Bassia scoparia) [12]; [19]): 80; Pigweed plant response rating (0 to 100 scale) ([13]; Postemergence, 31 g ai/ha): 30; Pigweed plant response rating (0 to 100 scale) [13, 19]: 70; Ragweed plant response rating (0 to 100 scale) ([14]; Postemergence, 31 g ai/ha): 60; Ragweed plant response rating (0 to 100 scale) [14, 19]: 80; Wheat plant response rating (0 to 100 scale) ([15]; Postemergence, 31 g ai/ha): 40; Wheat plant response rating (0 to 100 scale) [15, 19]: 80; Plant response rating, Barnyardgrass (Flood) [16]: 0; Plant response rating, Ducksalad (Flood) [17]: 0; Plant response rating, Rice (Flood) (rice (Oryza sativa)): 0; Plant response rating, Sedge, Umbrella (Flood) [18]: 0
